# Reference: US20190282640A1 (priority 2016, published 2019)
# Molecular target: C5 (Homo sapiens, UniProt P01031)
# Type: cell-based
# Sequence of C5 (P01031 678-1676): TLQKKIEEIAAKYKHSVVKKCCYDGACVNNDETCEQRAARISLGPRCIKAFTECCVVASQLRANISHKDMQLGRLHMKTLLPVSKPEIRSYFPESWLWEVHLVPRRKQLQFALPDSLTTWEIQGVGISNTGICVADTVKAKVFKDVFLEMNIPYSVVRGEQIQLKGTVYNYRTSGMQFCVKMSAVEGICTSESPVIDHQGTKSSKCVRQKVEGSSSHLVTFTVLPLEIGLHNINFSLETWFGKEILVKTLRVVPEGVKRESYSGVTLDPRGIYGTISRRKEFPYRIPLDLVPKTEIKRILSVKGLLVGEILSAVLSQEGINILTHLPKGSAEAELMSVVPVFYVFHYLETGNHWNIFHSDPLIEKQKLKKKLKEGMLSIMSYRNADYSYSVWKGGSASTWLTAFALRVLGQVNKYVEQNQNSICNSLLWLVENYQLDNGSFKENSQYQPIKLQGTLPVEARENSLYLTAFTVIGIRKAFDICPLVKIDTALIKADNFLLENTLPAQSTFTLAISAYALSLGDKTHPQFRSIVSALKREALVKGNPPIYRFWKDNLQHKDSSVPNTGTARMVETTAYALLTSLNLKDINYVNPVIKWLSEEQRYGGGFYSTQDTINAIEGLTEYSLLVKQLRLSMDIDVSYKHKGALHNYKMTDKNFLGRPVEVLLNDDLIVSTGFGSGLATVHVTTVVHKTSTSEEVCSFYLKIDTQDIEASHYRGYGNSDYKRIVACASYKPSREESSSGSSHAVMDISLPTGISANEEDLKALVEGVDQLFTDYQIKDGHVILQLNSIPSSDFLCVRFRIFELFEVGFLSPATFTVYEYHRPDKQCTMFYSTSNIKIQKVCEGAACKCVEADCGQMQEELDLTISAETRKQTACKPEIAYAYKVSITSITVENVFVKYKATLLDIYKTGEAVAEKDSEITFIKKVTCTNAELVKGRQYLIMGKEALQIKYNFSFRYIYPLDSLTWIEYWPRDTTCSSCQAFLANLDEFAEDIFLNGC
# Sequence of C5 (P01031 19-673): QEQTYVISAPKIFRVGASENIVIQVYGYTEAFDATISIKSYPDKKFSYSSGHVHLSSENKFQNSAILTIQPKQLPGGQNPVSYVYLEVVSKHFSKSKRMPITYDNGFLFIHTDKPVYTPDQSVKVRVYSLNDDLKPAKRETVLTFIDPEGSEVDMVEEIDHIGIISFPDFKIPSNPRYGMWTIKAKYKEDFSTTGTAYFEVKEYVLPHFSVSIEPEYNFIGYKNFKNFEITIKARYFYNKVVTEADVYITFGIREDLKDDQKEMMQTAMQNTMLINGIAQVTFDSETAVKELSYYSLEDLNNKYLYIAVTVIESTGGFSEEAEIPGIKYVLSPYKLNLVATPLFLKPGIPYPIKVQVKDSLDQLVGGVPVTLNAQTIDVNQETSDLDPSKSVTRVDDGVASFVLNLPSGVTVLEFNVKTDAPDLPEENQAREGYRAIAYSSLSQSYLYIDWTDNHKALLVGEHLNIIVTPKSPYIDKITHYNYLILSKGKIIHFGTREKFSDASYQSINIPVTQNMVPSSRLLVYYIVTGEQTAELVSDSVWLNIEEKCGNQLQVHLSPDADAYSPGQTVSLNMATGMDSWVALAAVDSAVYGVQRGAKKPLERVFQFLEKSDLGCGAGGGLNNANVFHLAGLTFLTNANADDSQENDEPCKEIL
substance,measurement,value
Eculizumab,effect of C5 inhibition on MRB LCMV G neutralization,able to prevent viral neutralization
